{
  "source": "paper PMC7617869",
  "about": "“Molecular glues that inhibit deubiquitylase activity and inflammatory signaling” (Nature Structural & Molecular Biology, 2025)",
  "key": {"[1]": {"test_system": "ISG expression in MCF10A Cas9 cells expressing BRCC45 WT", "experiment": "MCF10A BRCC45 WT ISG expression (RT–qPCR)", "assay_type": "cell-based, human", "conditions": "hIFNα2 75 ng/ml, 2.5 μM, 4 h"}, "USP2": {"target": "T1, USP2 (Homo sapiens, UniProt O75604)", "T1 construct": "His (N, cleaved yes); host or cells: Escherichia coli BL21(DE3)", "T1 sequence (O75604 258-605 limits assumed)": "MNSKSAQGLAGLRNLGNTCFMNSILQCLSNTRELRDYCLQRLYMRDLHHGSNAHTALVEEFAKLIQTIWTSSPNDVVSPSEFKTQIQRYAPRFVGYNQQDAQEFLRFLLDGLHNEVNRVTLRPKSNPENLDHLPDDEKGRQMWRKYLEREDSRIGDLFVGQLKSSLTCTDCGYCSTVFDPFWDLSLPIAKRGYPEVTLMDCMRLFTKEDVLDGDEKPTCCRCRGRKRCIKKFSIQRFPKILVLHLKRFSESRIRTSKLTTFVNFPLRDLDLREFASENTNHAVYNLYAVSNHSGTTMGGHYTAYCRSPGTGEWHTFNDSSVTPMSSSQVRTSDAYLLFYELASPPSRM", "experiment": "USP2 IQF diubiquitin selectivity assay", "assay_type": "biochemical", "conditions": "for Normalised V0: Fig. 1e, USP-2; for USP2, normalised activity (Ext. 1a): two replicate columns", "method": "BRISC DUB activity was measured at room temperature using 1 nM BRISC and 500 nM IQF diubiquitin K63 substrate (LifeSensors, DU6303) in the presence of DMSO and compounds at 10 μM (final concentrations). Assays were performed in 384-well black flat-bottom low-flange plates (Corning, 35373) in buffer containing 50 mM HEPES–NaOH pH 7.0, 100 mM NaCl, 1 mg ml^−1 BSA, 1 mM DTT and 0.03% v/v Brij-35. Then, 10 μl of twofold concentrated enzyme stock was dispensed, followed by transfer of 200 nl of compounds (1 mM stock) using a 384-pin tool and a 15-min incubation at room temperature. Then, 10 μl of twofold concentrated substrate stock was added and the reaction was monitored by measuring fluorescence intensity (excitation, 540 nm; emission, 580 nm) after 20-min incubation at room temperature and ~50% of substrate was consumed. Orthogonal assays for verification of H20 and P12 hit compounds using USP2 (100 nM) and trypsin (125 nM) were performed in identical conditions.\nIQF assays were performed in DUB reaction buffer containing 50 mM HEPES–NaOH pH 7.0, 100 mM NaCl, 0.1 mg ml^−1 BSA, 1 mM DTT and 0.03% v/v Brij-35. […] The final concentration of BRISC WT, all BRISC mutants, HsBRISCΔLoop, MmBRISC and DrBRISCΔNΔC was 1 nM. Other enzymes were tested at the following concentrations: 5 nM ARISC (FL), 10 nM CfBRISCΔNΔC, 250 nM AMSH* (ref. [43]), 500 nM USP2 and 1 μM trypsin (Sigma, 9002-07-7). For Michaelis–Menten experiments, 1 nM BRISC with 0–1 μM IQF K63-linked diubiquitin substrate was used. Michaelis–Menten analyses and Lineweaver–Burk plots were calculated using GraphPad Prism (version 9.0).\nTo assess enzymatic activity, BRISC complexes were diluted to concentrations between 1 nM and 50 nM. […] Then, 20-μl enzyme reactions were carried out in 384-well black flat-bottom low-flange plates (Corning, 35373). DUB activity was measured using IQF K63-linked diubiquitin (LifeSensors, DU6303) at 50 nM. Cleaved diubiquitin was monitored by measuring fluorescence intensity (excitation, 544 nm; emission, 575 nm; dichroic mirror, 560 nm). Fluorescence intensity was measured every minute for 30 min at 30 °C. Fluorescence intensity units were plotted against time to generate a linear reaction progress curve, where the initial velocity (V0) corresponds to the gradient of the curve (typically achieved within 15 min). IC50 values were calculated using the GraphPad Prism (version 9.0) built-in dose–response equation for inhibitor concentration versus response (variable slope)."}, "ARISC (FL)": {"target": "T2, ARISC (FL) (Homo sapiens, UniProt P46736+Q6UWZ7+Q9NXR7)", "T2 construct": "full-length BRISC (FL), ARISC (FL); made in house; host or cells: Spodoptera frugiperda Sf9 insect cells (MultiBac)", "experiment": "In-gel deubiquitylation assay, TAMRA-labeled K63-tetraubiquitin, ARISC", "assay_type": "biochemical", "conditions": "10 μM or 100 μM inhibitor", "method": "The inhibitor capzimin (Merck) was diluted in 1 mM DTT and incubated for 30 min at room temperature to reduce disulfide bonds required for inhibitor activity. […] DUBs were incubated with 750 nM TAMRA-labeled K63-tetraubiquitin (LifeSensors, SI6304T) for 10 min at 30 °C. Reactions were quenched by adding 2.5 μl of 4× SDS–PAGE loading dye (240 mM Tris-HCl pH 6.8, 40% v/v glycerol, 8% w/v SDS, 0.04% w/v bromophenol blue and 5% v/v β-mercaptoethanol). The samples were resolved on 4–12% NuPAGE Bis–Tris gels (Thermo Fisher Scientific). Gels were scanned using an iBright FL 1500 (Thermo Fisher Scientific) (excitation, 515–545 nm; emission, 568–617 nm; exposure, 500 ms)."}},
  "note": "“And” between values parts separate entries of the source, which are not always exact repeats. Equal entries are not always repeated.",
  "data": [
    {"smiles": "O=C(NC1CCNCC1)c1nn(C(=O)c2c(Cl)cccc2Cl)cc1NC(=O)c1c(Cl)cccc1Cl", "note": "[JMS-175-2]", "values": [
      {"measurement": "ISG expression (ISG15, IFIT1, IFIT2, IFITM1, CXCL10)", "setting": "[1]", "value": "reduced gene expression for all five ISGs"},
      {"measurement": "Normalised V0", "setting": "USP2; JMS-175-2 0.02 μM", "value": "1.069 and 1.241 and 0.9432"},
      {"measurement": "Normalised V0", "setting": "USP2; JMS-175-2 0.0399999 μM", "value": "0.8007 and 1.129 and 1.003"},
      {"measurement": "Normalised V0", "setting": "USP2; JMS-175-2 0.0599997 μM", "value": "1.048 and 0.9811 and 1.113"},
      {"measurement": "Normalised V0", "setting": "USP2; JMS-175-2 0.0799994 μM", "value": "0.9033 and 1.198 and 1.261"},
      {"measurement": "Normalised V0", "setting": "USP2; JMS-175-2 0.119998 μM", "value": "0.9288 and 1.09 and 1.206"},
      {"measurement": "Normalised V0", "setting": "USP2; JMS-175-2 0.199996 μM", "value": "0.6627 and 1.115 and 1.202"},
      {"measurement": "Normalised V0", "setting": "USP2; JMS-175-2 0.499975 μM", "value": "0.7837 and 1.098 and 1.253"},
      {"measurement": "Normalised V0", "setting": "USP2; JMS-175-2 0.799936 μM", "value": "0.8725 and 1 and 1.269"},
      {"measurement": "Normalised V0", "setting": "USP2; JMS-175-2 1.25984 μM", "value": "0.992 and 1.247"},
      {"measurement": "Normalised V0", "setting": "USP2; JMS-175-2 1.9996 μM", "value": "0.8222 and 1.018 and 1.206"},
      {"measurement": "Normalised V0", "setting": "USP2; JMS-175-2 3.159 μM", "value": "1.0183 and 0.9107 and 1.032"},
      {"measurement": "Normalised V0", "setting": "USP2; JMS-175-2 5.19739 μM", "value": "1.009 and 1.289"},
      {"measurement": "Normalised V0", "setting": "USP2; JMS-175-2 7.99364 μM", "value": "0.8621 and 1.003 and 1.185"},
      {"measurement": "Normalised V0", "setting": "USP2; JMS-175-2 12.7839 μM", "value": "0.6092 and 0.9802 and 1.084"},
      {"measurement": "Normalised V0", "setting": "USP2; JMS-175-2 19.96 μM", "value": "1.301 and 1.171 and 1.043"},
      {"measurement": "Normalised V0", "setting": "USP2; JMS-175-2 31.4999 μM", "value": "1.058 and 1.049 and 0.9631"},
      {"measurement": "Normalised V0", "setting": "USP2; JMS-175-2 50.147 μM", "value": "1.16 and 1.045 and 1.064"},
      {"measurement": "Normalised V0", "setting": "USP2; JMS-175-2 79.7601 μM", "value": "0.9987 and 0.9518 and 1.282"},
      {"measurement": "Normalised V0", "setting": "USP2; JMS-175-2 125.99 μM", "value": "1.008 and 1.145 and 1.176"},
      {"measurement": "Normalised V0", "setting": "USP2; JMS-175-2 199.922 μM", "value": "0.9471 and 0.7832 and 0.9905"},
      {"measurement": "USP2, normalised activity (Ext. 1a)", "setting": "USP2; log [compound (μM)] 0.1938, listed as H20", "value": "1.2610 and 1.0496"},
      {"measurement": "USP2, normalised activity (Ext. 1a)", "setting": "USP2; log [compound (μM)] 0.4949, listed as H20", "value": "1.2203 and 1.1061"},
      {"measurement": "USP2, normalised activity (Ext. 1a)", "setting": "USP2; log [compound (μM)] 0.7959, listed as H20", "value": "1.1774 and 1.0526"},
      {"measurement": "USP2, normalised activity (Ext. 1a)", "setting": "USP2; log [compound (μM)] 1.0969, listed as H20", "value": "1.1262 and 1.0278"},
      {"measurement": "USP2, normalised activity (Ext. 1a)", "setting": "USP2; log [compound (μM)] 1.3979, listed as H20", "value": "1.0528 and 0.9672"},
      {"measurement": "USP2, normalised activity (Ext. 1a)", "setting": "USP2; log [compound (μM)] 1.6990, listed as H20", "value": "1.0367 and 0.9078"},
      {"measurement": "USP2, normalised activity (Ext. 1a)", "setting": "USP2; log [compound (μM)] 2.0000, listed as H20", "value": "0.9400 and 0.8456"},
      {"measurement": "USP2, normalised activity (Ext. 1a)", "setting": "USP2; log [compound (μM)] 2.3010, listed as H20", "value": "0.9026 and 0.7165"},
      {"measurement": "USP2, normalised activity (Ext. 1a)", "setting": "USP2; log [compound (μM)] -0.1072, listed as H20", "value": "1.1074 and 1.0499"},
      {"measurement": "USP2, normalised activity (Ext. 1a)", "setting": "USP2; log [compound (μM)] -0.4082, listed as H20", "value": "1.1923 and 1.0651"},
      {"measurement": "USP2, normalised activity (Ext. 1a)", "setting": "USP2; log [compound (μM)] -0.7093, listed as H20", "value": "1.1905 and 1.0735"},
      {"measurement": "USP2, normalised activity (Ext. 1a)", "setting": "USP2; log [compound (μM)] -1.7100, normalisation point", "value": 1.0000},
      {"measurement": "inhibition of ARISC activity against tetraubiquitin", "setting": "ARISC (FL)", "value": "did not inhibit"}
    ]}
  ]
}
